Experimental data reported in US10065990B2, “Cyclic peptide compound, and preparation method, pharmaceutical composition and use thereof” (HANGZHOU GUANYU BIO-MEDICAL CO., LTD, priority 2013, dated 2018).
Like-named read-outs stand apart in the source and are kept apart here.

Columns and labels:
HDAC7 = target: T1, HDAC7 (Homo sapiens, UniProt Q8WUI4); assay: HDAC biochemical activity measurement (fluorescent substrate deacetylation);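 for all read-outs here: fluorogenic deacetylation assay using acetyl-lysine substrate at 20 µM, enzyme and compound incubated 30 min at 37 °C, then developer added, fluorescence read at 360/460 nm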; settings: for IC50 HDAC7: 37° C. 30 minutes
T1 sequence (Q8WUI4 1-952): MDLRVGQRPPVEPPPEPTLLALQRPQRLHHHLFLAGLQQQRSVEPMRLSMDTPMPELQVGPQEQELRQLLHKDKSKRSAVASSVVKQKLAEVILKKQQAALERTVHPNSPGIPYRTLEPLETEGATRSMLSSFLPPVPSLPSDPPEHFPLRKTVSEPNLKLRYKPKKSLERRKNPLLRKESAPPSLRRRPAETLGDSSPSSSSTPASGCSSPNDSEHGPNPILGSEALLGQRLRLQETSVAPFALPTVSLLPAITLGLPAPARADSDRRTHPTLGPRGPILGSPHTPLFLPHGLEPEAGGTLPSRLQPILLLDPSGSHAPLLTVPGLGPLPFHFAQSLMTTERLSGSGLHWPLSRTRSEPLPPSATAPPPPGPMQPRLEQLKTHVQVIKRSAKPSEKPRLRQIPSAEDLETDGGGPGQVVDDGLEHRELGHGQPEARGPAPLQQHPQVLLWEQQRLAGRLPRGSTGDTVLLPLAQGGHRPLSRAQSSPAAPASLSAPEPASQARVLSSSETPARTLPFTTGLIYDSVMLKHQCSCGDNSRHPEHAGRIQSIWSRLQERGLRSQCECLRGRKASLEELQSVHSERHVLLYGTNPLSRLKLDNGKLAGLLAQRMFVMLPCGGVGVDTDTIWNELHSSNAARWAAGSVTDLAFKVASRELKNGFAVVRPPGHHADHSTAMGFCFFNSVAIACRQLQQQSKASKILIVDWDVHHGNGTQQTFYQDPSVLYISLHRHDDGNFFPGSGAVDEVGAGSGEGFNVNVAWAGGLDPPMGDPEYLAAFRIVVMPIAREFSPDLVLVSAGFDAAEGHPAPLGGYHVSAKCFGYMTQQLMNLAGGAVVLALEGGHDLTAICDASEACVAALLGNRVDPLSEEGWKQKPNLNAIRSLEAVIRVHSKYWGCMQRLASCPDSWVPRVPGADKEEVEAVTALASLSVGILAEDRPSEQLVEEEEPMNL

[1] = tested on: A549 (human lung cancer cells); assay: MTT cancer cell growth inhibition; type: cell-based; settings: Homo sapiens, A549, 72 h, MTT, 72 hours incubation, read-out: GI50 A54
Source text: (§1) MTT assay principle is yellow MTT can penetrate membrane into the cell, succinic dehydrogenase of the mitochondria in living cells can make exogenous MTT reduction of insoluble in water of blue-violet acicular formazan for crystallization and deposition in the cell, crystallization can be dissolved dimethyl sulfoxide (DMSO) solution, detected its absorbance at 490 nm/570 nm wavelength by enzyme-linked immunosorbent assay, which can reflect the number of cells.
(§2) Using DMEM+10% FBS culture medium or using 1640+10% FBS culture, respectively.
(§3) a) Cells were seeded in 96-well plates with the inoculation of 1500/well, 190 μl/hole, 37° C., 5% of CO2 incubator overnight;
(§4) b) The next day each well was added 10 μl of different drugs. The final concentration of drug was 10^−5˜10^−10M, three parallel holes; 37° C., 5% CO2 culture incubator for 72 hours incubation;
(§5) c) Per well was added 20 μl 5 mg/ml of MTT, 37° C., 5% CO2 culture incubator for 4 hours incubation;
(§6) d) The supernatant was discarded. Each well was added 100 μl of DMSO and oscillation;
(§7) e) 570 nm readings. Calculate cell viability. GI50 calculation based on the results.

[2] = tested on: BGC-823 (human gastric cancer cells); assay: MTT cancer cell growth inhibition; type: cell-based; settings: Homo sapiens, BGC-823, 72 h, MTT, 72 hours incubation, read-out: GI50 BG
Source text: as §1, §2, §3, §4, §5, §6, §7

[3] = tested on: Bel-7402 (human hepatoma cells); assay: MTT cancer cell growth inhibition; type: cell-based; settings: Homo sapiens, Bel-7402, 72 h, MTT, 72 hours incubation, Bel-7402 cells; read-out: GI50 Bel-7402
Source text: as §1, §2, §3, §4, §5, §6, §7

[4] = tested on: DU145 (human prostate cancer cells); assay: MTT cancer cell growth inhibition; type: cell-based; settings: Homo sapiens, DU-145, 72 h, MTT, 72 hours incubation, read-out: GI50 Du1
Source text: as §1, §2, §3, §4, §5, §6, §7

[5] = tested on: H1975 (non-small cell lung adenocarcinoma); assay: MTT cancer cell growth inhibition; type: cell-based; settings: Homo sapiens, NCI-H1975, 72 h, MTT, 72 hours incubation, H1975 cells; read-out: GI50 H1975
Source text: as §1, §2, §3, §4, §5, §6, §7

[6] = tested on: HCC827 (human non-small cell lung cancer cells); assay: MTT cancer cell growth inhibition; type: cell-based; settings: Homo sapiens, HCC827, 72 h, MTT, 72 hours incubation, HCC827 cells; read-out: GI50 HCC827
Source text: as §1, §2, §3, §4, §5, §6, §7

[7] = tested on: HT1080 (human fibrosarcoma cells); assay: MTT cancer cell growth inhibition; type: cell-based; settings: Homo sapiens, HT-1080, 72 h, MTT, 72 hours incubation, read-out: GI50 HT1
Source text: as §1, §2, §3, §4, §5, §6, §7

[8] = tested on: Hela (human cervical cancer cells); assay: MTT cancer cell growth inhibition; type: cell-based; settings: Homo sapiens, HeLa, 72 h, MTT, 72 hours incubation, read-out: GI50 Hela
Source text: as §1, §2, §3, §4, §5, §6, §7

[9] = tested on: Huh-7 (human hepatoma cells); assay: MTT cancer cell growth inhibition; type: cell-based; settings: Homo sapiens, Huh-7, 72 h, MTT, 72 hours incubation, Huh-7 cells; read-out: GI50 Huh-7
Source text: as §1, §2, §3, §4, §5, §6, §7

[10] = tested on: K562 (human leukemia cells); assay: MTT cancer cell growth inhibition; type: cell-based; settings: Homo sapiens, K562, 72 h, MTT, 72 hours incubation, K562 cells; read-out: GI50 K562
Source text: as §1, §2, §3, §4, §5, §6, §7

[11] = tested on: KBM-5 (human chronic myelogenous leukemia); assay: MTT cancer cell growth inhibition; type: cell-based; settings: Homo sapiens, KBM5, 72 h, MTT, 72 hours incubation, KBM-5 cells; read-out: GI50 KBM-5
Source text: as §1, §2, §3, §4, §5, §6, §7

[12] = tested on: KBM5-T315I (human chronic myelogenous leukemia); assay: MTT cancer cell growth inhibition; type: cell-based; settings: Homo sapiens, 72 h, MTT, 72 hours incubation, KBM5-T315I cells; read-out: GI50 KBM5-T315I
Source text: as §1, §2, §3, §4, §5, §6, §7

[13] = tested on: MCF-7 (human breast cancer cells); assay: MTT cancer cell growth inhibition; type: cell-based; settings: Homo sapiens, MCF7, 72 h, 72 hours incubation, read-out: GI50 MCF
Source text: as §1, §2, §3, §4, §5, §6, §7

[14] = tested on: MDA-MB-231 (breast cancer cells); assay: MTT cancer cell growth inhibition; type: cell-based; settings: Homo sapiens, MDA-MB-231, 72 h, read-out: GI50 MDA-MB-231, MTT, 72 hours incubation, MDA-MB-231 cells
Source text: as §1, §2, §3, §4, §5, §6, §7

[15] = tested on: MOLT-4 (human acute lymphoblastic leukemia cells); assay: MTT cancer cell growth inhibition; type: cell-based; settings: Homo sapiens, MOLT-4, 72 h, MTT, 72 hours incubation, read-out: GI50 Mol
Source text: as §1, §2, §3, §4, §5, §6, §7

[16] = tested on: N-87 (human gastric cancer cells); assay: MTT cancer cell growth inhibition; type: cell-based; settings: Homo sapiens, 72 h, MTT, 72 hours incubation, N-87 cells; read-out: GI50 N-87
Source text: as §1, §2, §3, §4, §5, §6, §7

[17] = tested on: PANC-1 (Pac-1, human pancreatic cancer cells); assay: MTT cancer cell growth inhibition; type: cell-based; settings: Homo sapiens, PANC-1, 72 h, MTT, 72 hours incubation, read-out: GI50 PAN
Source text: as §1, §2, §3, §4, §5, §6, §7

[18] = tested on: SGC-7901 (human gastric cancer cells); assay: MTT cancer cell growth inhibition; type: cell-based; settings: Homo sapiens, SGC-7901, 72 h, MTT, 72 hours incubation, SGC-7901 cells; read-out: GI50 SGC-7901
Source text: as §1, §2, §3, §4, §5, §6, §7

[19] = tested on: U937 (human leukemia cells); assay: MTT cancer cell growth inhibition; type: cell-based; settings: Homo sapiens, U-937, 72 h, MTT, 72 hours incubation, read-out: GI50 U93
Source text: as §1, §2, §3, §4, §5, §6, §7

[20] = tested on: lncap (prostate cancer cells); assay: MTT cancer cell growth inhibition; type: cell-based; settings: Homo sapiens, LNCaP, 72 h, MTT, 72 hours incubation, read-out: GI50 lnca
Source text: as §1, §2, §3, §4, §5, §6, §7

Structure (SMILES) | IC50 HDAC7 (HDAC7) | GI50 [1] [nM] | GI50 [2] [nM] | GI50 [3] [nM] | GI50 [4] [nM] | GI50 [5] [nM] | GI50 [6] [nM] | GI50 [7] [nM] | GI50 [8] [nM] | GI50 [9] [nM] | GI50 [10] [nM] | GI50 [11] [nM] | GI50 [12] [nM] | GI50 [13] [nM] | GI50 [14] [nM] | GI50 [15] [nM] | GI50 [16] [nM] | GI50 [17] [nM] | GI50 [18] [nM] | GI50 [19] [nM] | other results
C=C1NC(=O)c2ccc(F)c(n2)CNC(=O)C[C@@H](/C=C/CCS)OC(=O)[C@H](C(C)C)NC1=O [Compound 134] | no activity | 30 | 170 | 29 | 50 | 54 | 35 | 70 | 40 | 92 | 38 | 31 | 61 | 80 | 63 | 50 | 41 | 130 | 27 | 50 | GI50 [20]: 100 nM
CC(C)=C1NC(=O)c2ccc(F)c(n2)CNC(=O)C[C@@H](/C=C/CCS)OC(=O)[C@H](C(C)C)NC1=O [Compound 138] | no activity | 40 | 20 | 76 | 20 | 43 | 22 | 20 | 60 | 36 | 21 | 42 | 45 | 20 | 52 | 50 | 16 | 30 | 72 | 20 | GI50 [20]: 50 nM
C/C=C1\NC(=O)c2ccc(SCC)c(n2)CNC(=O)C[C@@H](/C=C/CCSC(=O)CCCCC)OC(=O)[C@H](C(C)C)NC1=O [Compound 255] |  |  |  | 35 |  | 68 | 57 |  |  | 45 | 56 | 32 | 37 |  | 23 |  | 51 |  | 48 |  | IC50 (μM) HDAC7 (HDAC7): no activity; GI50 ([1]; A549 cells): 30 nM; GI50 ([2]; BGC-823 cells): 30 nM; GI50 ([4]; DU145 cells): 40 nM; GI50 ([7]; HT1080 cells): 60 nM; GI50 ([8]; Hela cells): 10 nM; GI50 ([13]; MCF-7 cells): 80 nM; GI50 ([15]; MOLT-4 cells): 50 nM; GI50 ([17]; PANC-1 cells): 40 nM; GI50 ([19]; U937 cells): 20 nM; GI50 ([20]; lncap cells): 50 nM
C/C=C1\NC(=O)c2cc(SC)cc(n2)CNC(=O)C[C@@H](/C=C/CCSC(=O)CCC)OC(=O)[C@H](C(C)C)NC1=O [Compound 160] | no activity |  |  | 36 |  | 71 | 16 |  |  | 42 | 42 | 28 | 26 |  | 17 |  | 49 |  | 81 |  | GI50 ([1]; A549 cells): 30 nM; GI50 ([2]; BGC-823 cells): 90 nM; GI50 ([4]; DU145 cells): 40 nM; GI50 ([7]; HT1080 cells): 40 nM; GI50 ([8]; Hela cells): 50 nM; GI50 ([13]; MCF-7 cells): 40 nM; GI50 ([15]; MOLT-4 cells): 50 nM; GI50 ([17]; PANC-1 cells): 40 nM; GI50 ([19]; U937 cells): 50 nM; GI50 ([20]; lncap cells): 50 nM
